Experimental data from patent publication US12186317B2, “Inhibitors of alpha-amino-beta-carboxymuconic acid semialdehyde decarboxylase” (TES Pharma S.r.l., priority 2018, dated 2025).

Biological target: T1, hACMSD (ACMSD1) (Homo sapiens, UniProt Q8TDX5)
T1 construct: made in house; host or cells: Pichia pastoris
Assay: Determination of ACMSD1 inhibition, spectrophotometrical in vitro assay (conversion of 3OH-anthranilic acid into ACMS)
Format: biochemical
Conditions: HAA concentration of 10 μM; recombinant ACMSD1 from Pichia pastoris; 25° C.; absorbance at 360 nm
Experimental: The activity of compounds as inhibitors of ACMSD1 is determined in a spectrophotometrical in vitro assay. The pre-assay mixture is incubated and a compound of Formula (I) or (II), or a pharmaceutically acceptable salt thereof, and ACMSD1 solution is then added. The effect of ACMS concentration on the enzyme activity is investigated by varying 3-hydroxyanthranilic acid (30H-HA) concentration in the pre-assay mixture. Kinetic parameters are calculated from the initial velocity data using a Lineweaver-Burk plot.
The pre-assay mixture consisting of 3-hydroxyanthranilic acid (30H-HA), 3-hydroxyanthranilic acid, 3,4-diOxygenase (HAO), and a dialyzed crude extract of E. coli BL21 (DE3) cells expressing the recombinant enzyme, was incubated at 25° C. with monitoring of the increase in absorbance at 360 nm due to the formation of ACMS from 30H-HA. After the reaction was completed within ˜2 mins, an aliquot of ACMSD1 solution (prepared and purified from Pichia pastoris overexpressing the recombinant enzyme) was added, and the decrease in absorbance at 360 nm was followed at 15 second intervals. The effect of ACMS concentration on the enzyme activity was investigated by varying 30H-HA concentration from 2 to 20 μM. Kinetic parameters were calculated from the initial velocity data by using the Lineweaver-Burk plot.
The rate of the decrease in absorbance caused by ACMSD1 was calculated by subtracting that of the control reaction mixture without ACMSD from that described above. One unit of ACMSD activity was indicated as the amount of enzyme that converts 1 mmol of ACMS per minute at 25° C.
The enzymatic activity was determined at a HAA concentration of 10 μM in the presence of the compounds in Table 1 below. […] In Table 1, A is <0.1 μM; B is 0.1 to 1 μM; C is 1 to 10 μM; and D is >10 μM.

T1 sequence (Q8TDX5 whole entry): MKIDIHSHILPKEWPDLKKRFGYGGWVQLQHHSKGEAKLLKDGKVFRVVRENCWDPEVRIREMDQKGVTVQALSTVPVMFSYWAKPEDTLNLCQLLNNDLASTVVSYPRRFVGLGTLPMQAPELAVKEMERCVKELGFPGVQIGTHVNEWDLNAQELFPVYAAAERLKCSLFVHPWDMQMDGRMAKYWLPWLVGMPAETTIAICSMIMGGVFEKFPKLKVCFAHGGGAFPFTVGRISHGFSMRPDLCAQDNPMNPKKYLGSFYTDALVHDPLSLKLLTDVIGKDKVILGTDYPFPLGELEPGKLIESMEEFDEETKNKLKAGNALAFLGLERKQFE

SMILES: CCOC(=O)Cc1cccc(CSc2nc(-c3cccs3)c(C#N)c(=O)[nH]2)c1 [I-1, [3-(5-Cyano-6-oxo-4-thiophen-2-yl-1,6-dihydro-pyrimidin-2-ylsulfanylmethyl)-phenyl]-acetic acid ethyl ester]
- IC50: 1000 to 10000 nM

SMILES: N#Cc1c(-c2cccs2)nc(SCc2cccc(C(N)=O)c2)[nH]c1=O [I-2, 3-(5-Cyano-6-oxo-4-thiophen-2-yl-1,6-dihydro-pyrimidin-2-ylsulfanylmethyl)-benzamide]
- IC50: 100 to 1000 nM

SMILES: N#Cc1c(-c2cccs2)nc(SCc2cccc(-c3cc(F)c(O)c(F)c3)c2)[nH]c1=O [I-3, 2-({[3-(3,5-difluoro-4-hydroxyphenyl)phenyl]methyl}sulfanyl)-6-oxo-4-(thiophen-2-yl)-1,6-dihydropyrimidine-5-carbonitrile]
- IC50: < 100 nM

SMILES: COc1nc(SCc2cccc(CC(=O)O)c2)nc(-c2cccs2)c1C#N [I-4, [3-(5-Cyano-4-methoxy-6-thiophen-2-yl-pyrimidin-2-ylsulfanylmethyl)-phenyl]-acetic acid]
- IC50: 1000 to 10000 nM

SMILES: N#Cc1c(Br)nc(SCc2cccc(CC(=O)O)c2)nc1-c1cccs1 [I-5, [3-(4-Bromo-5-cyano-6-thiophen-2-yl-pyrimidin-2-ylsulfanylmethyl)-phenyl]-acetic acid]
- IC50: 100 to 1000 nM

SMILES: N#Cc1c(NC2CC2)nc(SCc2cccc(CC(=O)O)c2)nc1-c1cccs1 [I-6, [3-(5-Cyano-4-cyclopropylamino-6-thiophen-2-yl-pyrimidin-2-ylsulfanylmethyl)-phenyl]-acetic acid]
- IC50: 1000 to 10000 nM

SMILES: N#Cc1c(N)nc(SCc2cccc(CC(=O)O)c2)nc1-c1cccs1 [I-7, [3-(4-Amino-5-cyano-6-thiophen-2-yl-pyrimidin-2-ylsulfanylmethyl)-phenyl]-acetic acid]
- IC50: 100 to 1000 nM

SMILES: N#Cc1cnc(SCc2cccc(CC(=O)O)c2)nc1-c1cccs1 [I-8, [3-(5-Cyano-6-thiophen-2-yl-pyrimidin-2-ylsulfanylmethyl)-phenyl]-acetic acid]
- IC50: 100 to 1000 nM

SMILES: CNc1nc(SCc2cccc(CC(=O)O)c2)nc(-c2cccs2)c1C#N [I-9, [3-(5-Cyano-4-methylamino-6-thiophen-2-yl-pyrimidin-2-ylsulfanylmethyl)-phenyl]-acetic acid]
- IC50: 100 to 1000 nM

SMILES: CNc1nc(SCc2cccc(C(=O)O)c2)nc(-c2cccs2)c1C#N [I-10, 3-(5-Cyano-4-methylamino-6-thiophen-2-yl-pyrimidin-2-ylsulfanylmethyl)-benzoic acid]
- IC50: 1000 to 10000 nM

SMILES: N#Cc1cccc(CSc2nc(-c3cccs3)c(C#N)c(=O)[nH]2)c1 [I-11, 2-(3-Cyano-benzylsulfanyl)-6-oxo-4-thiophen-2-yl-1,6-dihydro-pyrimidine-5-carbonitrile]
- IC50: 1000 to 10000 nM

SMILES: N#Cc1c(-c2cccs2)nc(SCc2cccc(CCO)c2)[nH]c1=O [I-12, 2-[3-(2-Hydroxy-ethyl)-benzylsulfanyl]-6-oxo-4-thiophen-2-yl-1,6-dihydropyrimidine-5-carbonitrile]
- IC50: 1000 to 10000 nM

SMILES: N#CCc1cccc(CSc2nc(-c3cccs3)c(C#N)c(=O)[nH]2)c1 [I-13, 2-(3-Cyanomethyl-benzylsulfanyl)-6-oxo-4-thiophen-2-yl-1,6-dihydro-pyrimidine-5-carbonitrile]
- IC50: 1000 to 10000 nM

SMILES: Cn1nnc(-c2cccc(CSc3nc(-c4cccs4)c(C#N)c(=O)[nH]3)c2)n1 [I-14, 2-[3-(2-Methyl-2H-tetrazol-5-yl)-benzylsulfanyl]-6-oxo-4-thiophen-2-yl-1,6-dihydro-pyrimidine-5-carbonitrile]
- IC50: 1000 to 10000 nM

SMILES: N#Cc1c(-c2cccs2)nc(SCc2cccc(CC(=O)O)c2)nc1N1CCOCC1 [I-15, [3-(5-Cyano-4-morpholin-4-yl-6-thiophen-2-yl-pyrimidin-2-ylsulfanylmethyl)-phenyl]-acetic acid]
- IC50: 1000 to 10000 nM

SMILES: N#Cc1c(-c2cccs2)nc(SCc2cccc(CC(=O)O)c2)nc1N1CCNCC1 [I-16, [3-(5-Cyano-4-piperazin-1-yl-6-thiophen-2-yl-pyrimidin-2-ylsulfanylmethyl)-phenyl]-acetic acid]
- IC50: > 10000 nM

SMILES: CCOC(=O)Cc1cccc(CSc2nc(=O)c(C#N)c(-c3cccs3)n2C)c1 [I-17, [3-(5-Cyano-1-methyl-4-oxo-6-thiophen-2-yl-1,4-dihydro-pyrimidin-2-ylsulfanylmethyl)-phenyl]-acetic acid ethyl ester]
- IC50: > 10000 nM

SMILES: N#Cc1c(-c2cccs2)nc(SCc2cccc(S(N)(=O)=O)c2)[nH]c1=O [I-18, 3-(5-Cyano-6-oxo-4-thiophen-2-yl-1,6-dihydro-pyrimidin-2-ylsulfanylmethyl)-benzenesulfonamide]
- IC50: 100 to 1000 nM

SMILES: N#Cc1c(-c2ccccc2)cc(=O)[nH]c1SCc1cccc(CC(=O)O)c1 [I-19, [3-(3-Cyano-6-oxo-4-phenyl-1,6-dihydro-pyridin-2-ylsulfanylmethyl)-phenyl]-acetic acid]
- IC50: < 100 nM

SMILES: N#Cc1c(-c2cccs2)cc(=O)[nH]c1SCc1cccc(CC(=O)O)c1 [I-20, [3-(3-Cyano-6-oxo-4-thiophen-2-yl-1,6-dihydro-pyridin-2-ylsulfanylmethyl)-phenyl]-acetic acid]
- IC50: < 100 nM

SMILES: N#Cc1c(SCc2cccc(CC(=O)O)c2)[nH]c(=O)c(C#N)c1-c1cccs1 [I-21, [3-(3,5-Dicyano-6-oxo-4-thiophen-2-yl-1,6-dihydro-pyridin-2-ylsulfanylmethyl)-phenyl]-acetic acid]
- IC50: < 100 nM

SMILES: N#Cc1c(SCc2cccc(-c3nnn[nH]3)c2)[nH]c(=O)c(C#N)c1-c1cccs1 [I-22, 2-Oxo-6-[3-(1H-tetrazol-5-yl)-benzylsulfanyl]-4-thiophen-2-yl-1,2-dihydro-pyridine-3,5-dicarbonitrile]
- IC50: < 100 nM

SMILES: N#Cc1c(Cc2ccccc2)cc(=O)[nH]c1SCc1cccc(CC(=O)O)c1 [I-23, [3-(4-Benzyl-3-cyano-6-oxo-1,6-dihydro-pyridin-2-ylsulfanylmethyl)-phenyl]-acetic acid]
- IC50: 1000 to 10000 nM

SMILES: N#Cc1c(-c2cccs2)nc(SCC(=O)O)[nH]c1=O [I-24, (5-Cyano-6-oxo-4-thiophen-2-yl-1,6-dihydro-pyrimidin-2-ylsulfanyl)-acetic acid]
- IC50: 1000 to 10000 nM

SMILES: N#Cc1c(-c2cccs2)nc(SCc2nnn[nH]2)[nH]c1=O [I-25, 6-Oxo-2-(1H-tetrazol-5-ylmethylsulfanyl)-4-thiophen-2-yl-1,6-dihydro-pyrimidine-5-carbonitrile]
- IC50: < 100 nM

SMILES: O=c1cc(C(F)(F)F)nc(SCc2nnn[nH]2)[nH]1 [I-26, 2-(1H-Tetrazol-5-ylmethylsulfanyl)-6-trifluoromethyl-3H-pyrimidin-4-one]
- IC50: < 100 nM

SMILES: O=C(O)CSc1nc(C(F)(F)F)cc(=O)[nH]1 [I-27, (6-Oxo-4-trifluoromethyl-1,6-dihydro-pyrimidin-2-ylsulfanyl)-acetic acid]
- IC50: 100 to 1000 nM

SMILES: O=C(O)Cc1cccc(CSc2nc(C(F)(F)F)cc(=O)[nH]2)c1 [I-28, [3-(6-Oxo-4-trifluoromethyl-1,6-dihydro-pyrimidin-2-ylsulfanylmethyl)-phenyl]-acetic acid]
- IC50: 100 to 1000 nM

SMILES: N#Cc1c(Cc2ccccc2)nc(SCC(=O)O)[nH]c1=O [I-30, (4-Benzyl-5-cyano-6-oxo-1,6-dihydro-pyrimidin-2-ylsulfanyl)-acetic acid]
- IC50: 100 to 1000 nM

SMILES: O=C(O)c1cccc(CSc2nc(C(F)(F)F)cc(=O)[nH]2)c1 [I-31, 3-(6-Oxo-4-trifluoromethyl-1,6-dihydro-pyrimidin-2-ylsulfanylmethyl)-benzoic acid]
- IC50: 1000 to 10000 nM

SMILES: N#Cc1c(Cc2ccccc2)nc(SCc2nnn[nH]2)[nH]c1=O [I-32]
- IC50: < 100 nM

SMILES: N#Cc1c(Cc2ccccc2)nc(SCc2cccc(CC(=O)O)c2)[nH]c1=O [I-33, [3-(4-Benzyl-5-cyano-6-oxo-1,6-dihydro-pyrimidin-2-ylsulfanylmethyl)-phenyl]-acetic acid]
- IC50: < 100 nM

SMILES: N#Cc1c(Cc2ccccc2)nc(SCc2cccc(-c3nnn[nH]3)c2)[nH]c1=O [I-34, 4-Benzyl-6-oxo-2-[3-(1H-tetrazol-5-yl)-benzylsulfanyl]-1,6-dihydro-pyrimidine-5 carbonitrile]
- IC50: < 100 nM

SMILES: N#Cc1c(Cc2ccccc2)nc(SCc2cccc(C(=O)O)c2)[nH]c1=O [I-35, 3-(4-Benzyl-5-cyano-6-oxo-1,6-dihydro-pyrimidin-2-ylsulfanylmethyl)-benzoic acid]
- IC50: 100 to 1000 nM

SMILES: N#Cc1c(C(F)(F)F)cc(=O)[nH]c1SCc1cccc(CC(=O)O)c1 [I-36, [3-(3-cyano-6-oxo-4-trifluoromethyl-1,6-dihydro-pyridin-2-ylsulfanylmethyl)-phenyl]-acetic acid]
- IC50: 100 to 1000 nM

SMILES: N#Cc1c(-c2cccs2)nc(SCCC(=O)O)[nH]c1=O [I-37]
- IC50: 1000 to 10000 nM

SMILES: N#Cc1c(-c2cccs2)nc(SCc2cc(F)c(O)c(F)c2)[nH]c1=O [I-39, 2-(3,5-Difluoro-4-hydroxy-benzylsulfanyl)-6-oxo-4-thiophen-2-yl-1,6-dihydro-pyrimidine-5-carbonitrile]
- IC50: 1000 to 10000 nM

SMILES: N#Cc1c(Cc2ccccc2)nc(SCc2cc(F)c(O)c(F)c2)[nH]c1=O [I-41, 4-Benzyl-2-(3,5-difluoro-4-hydroxy-benzylsulfanyl)-6-oxo-1,6-dihydro-pyrimidine-5-carbonitrile]
- IC50: 1000 to 10000 nM
